{
  "source": "patent US20110034442A1",
  "about": "“Use and Methods of Use for an Antagonist of the Serotin3 Receptor (5-HT3) and a Selective Modulator of Chloride Channels for the Treatment of Addiction to or Dependence on Medicines/Drugs or Nervous System Disorders” (priority 2007, published 2011)",
  "origin": "cited, not measured here",
  "key": {"mice [1]": {"system": "mice"}, "[2]": {"system": "adolescents who had alcohol dependence", "conditions": "4 microg/kg b.i.d."}, "rats [3]": {"system": "rats"}, "healthy males": {"system": "healthy males", "conditions": "pretreatment, nine healthy males"}, "early-onset alcoholism": {"system": "early-onset alcoholism", "conditions": "16 microg/kg twice daily; early-onset compared with late-onset alcoholism"}, "[4]": {"conditions": "in vivo"}, "Wistar rats": {"system": "Wistar rats", "conditions": "0.1, 0.5, 1, 2 mg/kg intra-peritoneally, 30 minutes prior to d-amphetamine"}, "K+-evoked [3H]ACh efflux": {"system": "K+-evoked [3H]ACh efflux", "conditions": "slices from rat entorhinal cortex preloaded with [3H]choline"}, "[5]": {"conditions": "in vivo", "remark": "listed apart in the source"}, "healthy human volunteers": {"system": "healthy human volunteers", "conditions": "pretreatment 0.15 mg/kg i.v.; oral D-amphetamine 0.5 mg/kg; subjects with robust responses"}, "mice [6]": {"system": "mice", "conditions": "0.1 and 1 mg/kg PO"}, "[7]": {"conditions": "pre-treatment 12 mg orally over 24 h; amphetamine 15 mg orally"}, "5-HT3 receptors": {"target": "T1, 5-HT3 receptors (Homo sapiens, UniProt P46098)", "T1 sequence (P46098 24-478)": "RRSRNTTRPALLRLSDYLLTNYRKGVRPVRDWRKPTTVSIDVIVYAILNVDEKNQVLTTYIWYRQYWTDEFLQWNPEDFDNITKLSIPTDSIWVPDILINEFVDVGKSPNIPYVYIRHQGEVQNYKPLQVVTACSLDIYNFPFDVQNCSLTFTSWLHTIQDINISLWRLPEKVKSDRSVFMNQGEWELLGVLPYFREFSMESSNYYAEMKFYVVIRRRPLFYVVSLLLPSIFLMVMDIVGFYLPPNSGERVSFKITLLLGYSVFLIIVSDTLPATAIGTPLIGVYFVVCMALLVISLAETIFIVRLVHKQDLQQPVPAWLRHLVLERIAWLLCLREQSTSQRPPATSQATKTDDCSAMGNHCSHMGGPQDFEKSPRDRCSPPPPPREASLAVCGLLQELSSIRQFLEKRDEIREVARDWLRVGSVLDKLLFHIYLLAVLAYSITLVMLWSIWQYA", "conditions": "in vivo"}, "[8]": {"experiment": "not given", "remark": "listed apart in the source"}, "[9]": {"conditions": "flumazenil 10 mg/kg, ondansetron 0.3 mg/kg, R(−)-alpha-metylhistamine 10 mg/kg"}, "[10]": {"experiment": "not given", "remark": "listed apart in the source"}, "[11]": {"system": "cocaine-dependent men and women"}, "[12]": {"system": "alcohol dependent subjects", "conditions": "4 microg/kg b.i.d."}, "[13]": {"conditions": "in vivo", "remark": "listed apart in the source"}, "[14]": {"conditions": "pH 7.4"}, "rat": {"system": "rat", "conditions": "elevated plus maze"}, "rats [15]": {"system": "rats", "conditions": "rats receiving combined cocaine-diazepam compared to cocaine alone or diazepam alone"}, "[16]": {"system": "alcohol-dependent subjects", "conditions": "15 alcohol-dependent subjects"}, "acetylcholine release": {"system": "acetylcholine release", "conditions": "GABA(A) receptor antagonist given with ondansetron; rat frontal cortex"}, "[17]": {"system": "alpha(4)-subunit gene expression", "conditions": "ethanol withdrawal"}, "[18]": {"conditions": "in contrast to naltrexone"}},
  "note": "Where a name gives a salt, the structure may show the parent alone. Read-outs that look alike come from different tables or passages of the source.",
  "data": [
    {"compound": "Cc1nccn1CC1CCc2c(c3ccccc3n2C)C1=O", "note": "(racemic) [ondansetron, (±)1,2,3,9-tetrahydro-9-methyl-3-[(2-methyl-1H-imidazol-1-yl)methyl]-4H-carbazol-4-one, monohydrochlororide, dehydrate]", "values": [
      {"measurement": "changes of the self-stimulation", "setting": "male rats", "result": "did not cause any substantial changes"},
      {"measurement": "anxiolytic action compared to naive mice", "setting": "mice [1]; 0.01, 0.1 and 1 mg/kg i.p.", "result": "significant anxiolytic action"},
      {"measurement": "potency compared to diazepam", "setting": "mice [1]; diazepam 1 mg/kg", "result": "less potent"},
      {"measurement": "craving, Adolescent Obsessive-Compulsive Drinking Scale", "setting": "[2]", "result": "reduction"},
      {"measurement": "drinks per day", "setting": "[2]; 8 weeks", "result": "significant decrease"},
      {"measurement": "safety and tolerability", "setting": "[2]; oral, 8 weeks, 12 adolescents", "result": "safe and well tolerated"},
      {"measurement": "anxiolytic action during withdrawal from chronic chlordiazepoxide", "setting": "rats [3]; rats (Rezazadeh 1992)", "result": "mixed results"},
      {"measurement": "efficacy in reversing various aspects of benzodiazepine withdrawal", "setting": "rats [3]; rats, three tests, flumazenil given during chronic chlordiazepoxide (Prather 1993)", "result": "Inconsistent results"},
      {"measurement": "expression of sensitization and tolerance", "setting": "administered during withdrawal from intermittent and continuous cocaine", "result": "blockade of the expression of sensitization and tolerance"},
      {"measurement": "development of behavioral tolerance", "setting": "continuous cocaine group", "result": "attenuated the development of behavioral tolerance"},
      {"measurement": "development of sensitization", "setting": "daily injections with cocaine, inverted U-shape dose-response curve", "result": "significantly blocked the development of sensitization"},
      {"measurement": "subsequent behavioral response to cocaine", "setting": "daily injections, saline control subjects", "result": "no consistent or significant effect"},
      {"measurement": "effects of amphetamine on blood pressure or psychomotor performance tests", "setting": "healthy males", "result": "not on blood pressure or psychomotor performance tests"},
      {"measurement": "effects of amphetamine on hunger and subjective state", "setting": "healthy males", "result": "attenuated"},
      {"measurement": "alleviation of overall mood disturbance, fatigue, vigor, confusion/bewilderment and depression", "setting": "early-onset alcoholism", "result": "greater therapeutic efficacy"},
      {"measurement": "ensuing facilitation of self-stimulation after high-dose nicotine", "setting": "[4]", "result": "not the ensuing facilitation"},
      {"measurement": "initial depression of self-stimulation by high-dose nicotine", "setting": "[4]", "result": "reduced the initial depression"},
      {"measurement": "self-stimulation", "setting": "[4]", "result": "no effect"},
      {"measurement": "average stereotypic score", "setting": "Wistar rats", "result": "decreased"},
      {"measurement": "mean number of head dippings and crossings in the hole board test", "setting": "Wistar rats", "result": "significantly decreased"},
      {"measurement": "K+-evoked [3H]ACh efflux", "setting": "K+-evoked [3H]ACh efflux", "result": "concentration-dependent increase"},
      {"measurement": "increased behavioral suppression following withdrawal from ethanol, nicotine and cocaine", "setting": "[5]", "result": "highly effective inhibitor"},
      {"measurement": "activation-euphoria responses to D-amphetamine", "setting": "healthy human volunteers", "result": "attenuated responses"},
      {"measurement": "number of shocks taken", "setting": "mice [6]", "result": "increased"},
      {"measurement": "amphetamine-induced decrease in self-ratings of hunger", "setting": "[7]", "result": "significantly attenuated"},
      {"measurement": "antagonism of the effects of amphetamine", "setting": "5-HT3 receptors", "result": "did not antagonize the effects of amphetamine"},
      {"measurement": "solubility in water and normal saline", "setting": "[8]; racemic form, water and normal saline", "result": "soluble"},
      {"measurement": "attenuation of scopolamine-induced deficits", "setting": "[9]", "result": "neither flumazenil 10 mg/kg, ondansetron 0.3 mg/kg nor R(−)-alpha-metylhistamine 10 mg/kg attenuated"},
      {"measurement": "cocaine intake the following day", "setting": "[10]; administered 30 min before the cocaine session", "result": "no effect"},
      {"measurement": "cocaine self-administration the following day", "setting": "[10]; given 3.5 h after intravenous cocaine self-administration", "result": "attenuate self-administration the following day"},
      {"measurement": "cocaine self-administration and sensitization", "setting": "[10]; given after each second cocaine regimen dose or during the second withdrawal period", "result": "inhibited"},
      {"measurement": "tolerability, adverse events", "setting": "[11]; 0.25 mg, 1.0 mg, or 4.0 mg twice daily, 10 weeks", "result": "well tolerated, causing no serious adverse events"},
      {"measurement": "dropout rate among all treatment groups", "setting": "[11]; 4.0 mg twice daily", "result": "lowest dropout rate"},
      {"measurement": "percentage of participants with a cocaine-free week compared with the placebo group", "setting": "[11]; 4.0 mg twice daily, p=0.02", "result": "greater rate of improvement"},
      {"measurement": "overall craving", "setting": "[12]; early-onset alcoholics", "result": "reduced overall craving significantly"},
      {"measurement": "overall craving", "setting": "[12]; late-onset alcoholics, compared with placebo", "result": "not late-onset alcoholics"}
    ]},
    {"compound": "CN1[C@@H]2CC[C@H]1C[C@@H](OC(=O)c1cc(Cl)cc(Cl)c1)C2", "note": "[MDL 72222]", "values": [
      {"measurement": "K+-evoked [3H]ACh efflux", "setting": "K+-evoked [3H]ACh efflux", "result": "concentration-dependent increase"}
    ]},
    {"compound": "C[C@@H](N)Cc1c[nH]cn1", "note": "[R(−)-alpha-metylhistamine]", "values": [
      {"measurement": "attenuation of scopolamine-induced deficits", "setting": "[9]", "result": "neither flumazenil 10 mg/kg, ondansetron 0.3 mg/kg nor R(−)-alpha-metylhistamine 10 mg/kg attenuated"}
    ]},
    {"compound": "O=Cc1c(N2CCN(Cc3ccc4c(c3)OCO4)CC2)[nH]c2ccccc12", "note": "[VA21B7, 3-[2-(4′-piperonylpiperazinyl)indolyl]carboxaldehyde]", "values": [
      {"measurement": "release of suppressed behavior", "setting": "[13]", "result": "able to release suppressed behavior"}
    ]},
    {"compound": "CCOC(=O)c1ncn2c1CN(C)C(=O)c1cc(F)ccc1-2", "note": "[flumazenil, ethyl 8-fluoro-5,6-dihydro-5-methyl-6-oxo-4H-imidazo[1,5-a](1,4)benzodiazepine-3-carboxylate]", "values": [
      {"measurement": "changes of the self-stimulation", "setting": "male rats", "result": "did not cause any substantial changes"},
      {"measurement": "K+-evoked [3H]ACh efflux", "setting": "K+-evoked [3H]ACh efflux", "result": "enhanced"},
      {"measurement": "octanol:buffer partition coefficient", "setting": "[14]", "result": "14 to 1"},
      {"measurement": "anxiolytic effects", "setting": "rat", "result": "did not produce any anxiolytic effects"},
      {"measurement": "decrease in open arm entries produced by withdrawal from ethanol treatment", "setting": "rat", "result": "blocked these changes"},
      {"measurement": "seizures and incidence of death", "setting": "rats [15]", "result": "unmask seizures and increase the incidence of death"},
      {"measurement": "solubility in acidic aqueous solutions", "setting": "[8]; acidic aqueous solutions", "result": "slightly soluble"},
      {"measurement": "solubility in water", "setting": "[8]; water", "result": "insoluble"},
      {"measurement": "anxiolytic or anxiogenic effect", "setting": "[16]", "result": "neither anxiolytic nor anxiogenic"},
      {"measurement": "attenuation of scopolamine-induced deficits", "setting": "[9]", "result": "neither flumazenil 10 mg/kg, ondansetron 0.3 mg/kg nor R(−)-alpha-metylhistamine 10 mg/kg attenuated"},
      {"measurement": "peak increase of acetylcholine release over basal levels", "setting": "acetylcholine release", "result": 259, "unit": "%"},
      {"measurement": "up-regulation of alpha(4)-subunit gene expression", "setting": "[17]", "result": "selectively prevented the up-regulation"}
    ]},
    {"compound": "CN1C2CCCC1CC(NC(=O)c1nn(C)c3ccccc13)C2", "note": "(centres unmarked) [granisetron]", "values": [
      {"measurement": "K+-evoked [3H]ACh efflux", "setting": "K+-evoked [3H]ACh efflux", "result": "concentration-dependent increase"}
    ]},
    {"compound": "C=C1CC[C@@]2(O)[C@H]3Cc4ccc(O)c5c4[C@@]2(CCN3CC2CC2)[C@H]1O5", "note": "[nalmefene, 17(cyclopropylmethyl)-4,5-alpha-epoxy-6-methylenemorphinan-3,14-diol,hydrochloride salt]", "values": [
      {"measurement": "hepatocellular injury", "setting": "[18]", "result": "does not cause hepatocellular injury"}
    ]}
  ]
}
